In patent US20070073039A1, “Peptides that inhibit viral infections” (priority 2005, published 2007):

Tested on: HCV
Assay: HCV focus reduction assay
Type: cell-based, Hepatitis C virus (JFH-1)
Details: for Fold Inhibition: inhibition of HCV infection; for Fold Inhibition / % of Mock: peptide approximately 20 μM, Huh-7.5.1 cells, 3 days; for % of Mock: number of HCV foci as % of mock (0.5% DMSO); for Fold inhibition of HCV infection: peptide library screen, approximately 20 μM; for 1/3 diluted / 1/9 diluted / No dilution: HCV foci; for 1/3 diluted: 1/3 of final concentration (6 μM); for 1/9 diluted: 1/9 of final concentration (2 μM); for No dilution: final concentration 17-20 μM, MOCK 53 ± 4
Protocol: To identify peptides that display antiviral activity against HCV infection, the peptide library was screened by an HCV focus reduction assay. The peptides were constituted in 100% DMSO at a final concentration 10 mg/mL, and stored in −20° C. The peptide stock solution was diluted 1:200 to a final concentration approximately 20 μM in complete DMEM growth medium containing 50 focus forming units (ffu) of HCV. The virus-peptide mixture was transferred to Huh-7.5.1 cells at a density of 8000 cells per well in a 96-well plate. After adsorption for 4 hours at 37° C., the inoculum was removed. The cells were washed 2 times, overlaid with 120 μL fresh growth medium and incubated at 37° C. After 3 days of culture, the cells were fixed with paraformaldehyde and immunostained with antibody against HCV nonstructural protein NS5A. The numbers of HCV foci were counted under fluorescent microscopy and the result is expressed as percentage (%) of mock with no peptide treatment but containing solvent 0.5% DMSO.
To determine whether the antiviral activity of peptide 1 is dependent on its primary amino acid sequence, four derivative peptides from peptide 1 were synthesized to a purity >95%. The four derivatives having the same composition of amino acids included (1) the reversed the sequence of peptide 1 (also called retro-peptide); (2) scrambled hydrophobic amino acids; (3) scrambled hydrophilic amino acids; and (4) a derivative in which the aspartic acid residues (D) were replaced with proline residues (P). The antiviral activity of the peptides was examined by HCV focus reduction assay at three peptide concentrations: 18 μM, 6 μM and 2 μM, as described above.

APTLWARMILMTHFFSVL [Peptide 7331] was tested, and the “Fold Inhibition” value was 2.2 fold and the “% of Mock” value was 45.2%.
With AYMNTPGLPVCQDHLEFW [Peptide 7146] the “Fold Inhibition” value was 2.5 fold and the “% of Mock” value was 40.5%.
In the case of DAILHTPGCVPCVREGNA [Peptide 6957], the “Fold Inhibition” value is reported as 4.7 fold and the “% of Mock” value is reported as 21.4%.
In the case of DDLVVICESAGVQEDAAS [Peptide 7317], the “Fold Inhibition” value is reported as 3.8 fold and the “% of Mock” value is reported as 26.2%.
DQLEQALNCEIYGACYSI [Peptide 7334] was tested, and the “Fold Inhibition” value was 3.5 fold and the “% of Mock” value was 28.6%.
For DSSVLCECYDAGCAWYEL [Peptide 7142], the “Fold Inhibition” value was 2.5 fold and the “% of Mock” value was 40.5%.
In the case of DTEDVVCCSMSYSW [Peptide 7741], the “Inhibition of HCV infection” value (cell culture model of HCV infection) is reported as “strongly inhibit HCV infection”, the “Fold Inhibition” value is reported as 42.0 fold and the “% of Mock” value is reported as 2.4%. The “Fold inhibition of HCV infection” value was “more than ten-fold”.
For DVVCCSMSYSWTGAL [Peptide 7742], the “Fold Inhibition” value was 4.2 fold and the “% of Mock” value was 23.8%.
For EVFWAKHMWNFISGIQYL [Peptide 7177], the “Fold Inhibition” value was 4.2 fold and the “% of Mock” value was 23.8%.
In the case of GAVYAFYGMWPLLLLLLA [Peptide 7038], the “Fold Inhibition” value is reported as 5.3 fold, the “% of Mock” value is reported as 19.0% and the “Fold inhibition of HCV infection” value is reported as “five-fold to ten-fold”.
GMWPLLLLLLALPQRAYA [Peptide 7039] was tested, and the “Fold Inhibition” value was 3.2 fold and the “% of Mock” value was 31.0%.
In the case of GNTLTCYIKARAACRAAG [Peptide 7313], the “Fold Inhibition” value is reported as 2.2 fold and the “% of Mock” value is reported as 45.2%.
With GPISYANGSGLDERPYCW [Peptide 6993] the “Fold Inhibition” value was 4.2 fold and the “% of Mock” value was 23.8%.
With GSGLDERPYCWHYPPRPC [Peptide 6994] the “Fold Inhibition” value was 3.0 fold and the “% of Mock” value was 33.3%.
In the case of GVPPLRAWRHRARSVRAR [Peptide 7342], the “Fold Inhibition” value is reported as 2.0 fold and the “% of Mock” value is reported as 50.0%.
GWAGWLLSPRGSRPSWGP [Peptide 6939] was tested, and the “Fold Inhibition” value was 2.2 fold and the “% of Mock” value was 45.2%.
For GWFTAGYSGGDIYHSVSH [Peptide 7350], the “Fold Inhibition” value was 2.3 fold and the “% of Mock” value was 42.9%.
In the case of HINSTALNCNESLNTGWL [Peptide 6986], the “Fold Inhibition” value is reported as 2.5 fold and the “% of Mock” value is reported as 40.5%.
With HPITKYIMTCMSADLEVV [Peptide 7160] the “Fold Inhibition” value was 2.6 fold and the “% of Mock” value was 38.1%.
HTPVNSWLGNIIMFAPTL [Peptide 7329] was tested, and the “Fold Inhibition” value was 2.1 fold and the “% of Mock” value was 47.6%.
Sequence “KFDSLVECIWDWIDRLWS (OTHER INFORMATION: A synthetic peptide)” has a 1/3 diluted of 50 ± 7, a 1/9 diluted of 31 ± 3 and a No dilution of 1 ± 1.
For KWEYVVLLFLLLADARVC [Peptide 7028], the “Fold Inhibition” value was 2.1 fold and the “% of Mock” value was 47.6%.
“KWLCRIWSWISDVLDDFE (OTHER INFORMATION: A synthetic peptide)” gave a 1/3 diluted of 8 ± 6, a 1/9 diluted of 15 ± 6 and a No dilution of 0 ± 0.
For LAALAAYCLSTGCVV [Peptide 7730], the “Fold Inhibition” value was 4.7 fold and the “% of Mock” value was 21.4%.
With LASCRRLTDFAQGWGPIS [Peptide 6991] the “Fold Inhibition” value was 2.8 fold and the “% of Mock” value was 35.7%.
In the case of LEFWEGVFTGLTHIDAHF [Peptide 7148], the “Fold Inhibition” value is reported as 3.0 fold and the “% of Mock” value is reported as 33.3%.
In the case of LELITSCSSNVSVAHDGA [Peptide 7323], the “Fold Inhibition” value is reported as 2.3 fold and the “% of Mock” value is reported as 42.9%.
LPTTQLRRHIDLLVGSAT [Peptide 6962] was tested, and the “Fold Inhibition” value was 2.6 fold and the “% of Mock” value was 38.1%.
For MWNFISGIQYLAGLSTLP [Peptide 7178], the “Fold Inhibition” value was 2.3 fold and the “% of Mock” value was 42.9%.
In the case of MYVGGVEHRLEAACNWTR [Peptide 7016], the “Fold Inhibition” value is reported as 6.0 fold, the “% of Mock” value is reported as 16.7% and the “Fold inhibition of HCV infection” value is reported as “five-fold to ten-fold”.
NCNESLNTGWLAGLFYQH [Peptide 6987] was tested, and the “Fold Inhibition” value was 2.8 fold and the “% of Mock” value was 35.7%.
In the case of PAILSPGALVVGVVCAAI [Peptide 7195], the “Fold Inhibition” value is reported as 2.3 fold and the “% of Mock” value is reported as 42.9%.
PCVIGGVGNNTLLCPTDC [Peptide 7007] was tested, and the “Fold Inhibition” value was 3.0 fold and the “% of Mock” value was 33.3%.
QIVGGVYLLPRRGPRLGV [Peptide 6930] was tested, and the “Fold Inhibition” value was 2.2 fold and the “% of Mock” value was 45.2%.
In the case of QPGYPWPLYGNEGCGWAG [Peptide 6937], the “Fold Inhibition” value is reported as 2.0 fold and the “% of Mock” value is reported as 50.0%.
In the case of RAAGLQDCTMLVCGDDLV [Peptide 7315], the “Fold Inhibition” value is reported as 2.0 fold and the “% of Mock” value is reported as 50.0%.
With RHIDLLVGSATLCSALYV [Peptide 6963] the “Fold Inhibition” value was 3.2 fold and the “% of Mock” value was 31.0%.
With SIASWAIKWEYVVLLFLL [Peptide 7027] the “Fold Inhibition” value was 2.5 fold and the “% of Mock” value was 40.5%.
“SIWRDWVDLICEFLSDWK (OTHER INFORMATION: A synthetic peptide)” showed a 1/3 diluted of 31 ± 2, a 1/9 diluted of 16 ± 4 and a No dilution of 0 ± 0.
SSGADTEDVVCCSMS [Peptide 7740] was tested, and the “Fold Inhibition” value was 2.3 fold and the “% of Mock” value was 42.9%.
Work on “SWLRPIWPWICEVLSDFK (OTHER INFORMATION: A synthetic peptide)” yielded a 1/3 diluted of 21 ± 8, a 1/9 diluted of 41 ± 2 and a No dilution of 9 ± 3.
For TDFAQGWGPISYANGSGL [Peptide 6992], the “Fold Inhibition” value was 3.2 fold and the “% of Mock” value was 31.0%.
“TSTWVLVGGVLAAL (VTSTWVLVGGVLAAL) [Peptide 7729]” was tested, and the “Fold Inhibition” value was 8.4 fold, the “% of Mock” value was 11.9% and the “Fold inhibition of HCV infection” value was “five-fold to ten-fold”.
With TVTESDIRTEEAIYQCCD [Peptide 7304] the “Fold Inhibition” value was 2.8 fold and the “% of Mock” value was 35.7%.
In the case of VSTATQTFLATCIN [Peptide 7725], the “Fold Inhibition” value is reported as 2.5 fold and the “% of Mock” value is reported as 40.5%.
With WMNSTGFTKVCGAPPCVI [Peptide 7005] the “Fold Inhibition” value was 6.0 fold, the “% of Mock” value was 16.7% and the “Fold inhibition of HCV infection” value was “five-fold to ten-fold”.
WRHRARSVRARLLSRGGR [Peptide 7343] was tested, and the “Fold Inhibition” value was 2.1 fold and the “% of Mock” value was 47.6%.
For WVLVGGVLAALAAYCLST [Peptide 7163], the “Fold Inhibition” value was 3.8 fold and the “% of Mock” value was 26.2%.
In the case of YVSGMTTDNLKCPCQIPS [Peptide 7226], the “Fold Inhibition” value is reported as 2.6 fold and the “% of Mock” value is reported as 38.1%.
